# Laboratory results from patent publication US10912780B2, “Heterocyclic compounds useful as anti-bacterial agents and method for production thereof” (Bugworks Research, Inc., priority 2017, dated 2021).
# Experiments:
# E. coli topoisomerase IV = E. coli topoisomerase IV (Escherichia coli, UniProt P0AFI2+P20083); test: biochemical; conditions: decatenation assay; read-out: E. coli Topo IV IC50
# [1] = test system: Escherichia coli ATCC 25922; test: Minimum Inhibitory Concentration (MIC) in LB media; format: cell-based; conditions: Escherichia coli, ATCC25922, read-out: Minimum Inhibitory Concentration E. coli ATCC 25922
# Excerpt: (§1) The compounds of Formula (I) are of interest due to their potent antibacterial effects. The ability of the invention compounds disclosed herein to achieve an antibacterial effect may be evaluated with regard to their ability to inhibit the growth of bacterial species like Escherichia coli ATCC 25922, Staphylococcus aureus ATCC 29213, Klebsiella pneumoniae ATCC 13883, Acinetobacter baumannii ATCC 19606, Pseudomonas aeruginosa ATCC 27853, Enterococcus faecalis ATCC 29212 and Enterococcus faecalis ATCC 29212 using an assay based on the following Minimum Inhibitory Concentration (MIC) protocol:
# (§2) The medium sterility is checked by incubating at 37° C. for a period of 48 h.
# (§3) Bacterial cultures that are stored as glycerol stocks at −80° C. are sub cultured on LB agar plates to obtain isolated colonies. A single colony of each strain is cultured in LB broth. The cultures are incubated at 37 C, 200 rpm till they reach an optical density (OD at 600 nm) of 0.8 to 1. […] Test compounds are dissolved in dimethyl sulfoxide (DMSO) to a stock concentration of 4 mg/ml. A twofold dilution series of this DMSO stock is prepared in a 96 well V bottom microtitre plate from rows A to H. A 3 μL volume of these dilutions are transferred to a 96-well flat bottom microtitre assay plate. Controls to monitor the effects of DMSO and media sterility are included. Each well is inoculated with 150 μL of the above diluted culture. The plates are incubated at 37° C. overnight in a humidified incubator. The following morning, the plates are read using a Spectrophotometer at 600 nm wavelength. […] The antibacterial activity (MIC) determined against representative Gram positive (S. aureus, E. faecalis) and Gram negative (E.coli, -P. aeruginosa and A. baumannii) pathogen were reported Table 1.
# [2] = test system: Staphylococcus aureus ATCC 29213; test: Minimum Inhibitory Concentration (MIC) in LB media; format: cell-based; conditions: Staphylococcus aureus, ATCC29213, read-out: Minimum Inhibitory Concentration S. aureus ATCC 29213
# Excerpt: as §1, §2, §3
# [3] = test system: Pseudomonas aeruginosa ATCC 27853; test: Minimum Inhibitory Concentration (MIC) in LB media; format: cell-based; conditions: Pseudomonas aeruginosa, ATCC27853, read-out: Minimum Inhibitory Concentration P. aeruginosa ATCC 27853
# Excerpt: as §1, §2, §3
# [4] = test system: Klebsiella pneumoniae ATCC 13883; test: Minimum Inhibitory Concentration (MIC) in LB media; format: cell-based; conditions: Klebsiella pneumoniae, ATCC13883, read-out: Minimum Inhibitory Concentration K. pneumoniae ATCC 13883
# Excerpt: as §1, §2, §3
# [5] = test system: Enterococcus faecalis ATCC 29212; test: Minimum Inhibitory Concentration (MIC) in LB media; format: cell-based; conditions: Enterococcus faecalis, ATCC29212, read-out: Minimum Inhibitory Concentration E. faecalis ATCC 29212
# Excerpt: as §1, §2, §3
# E. coli DNA gyrase = E. coli DNA gyrase (Escherichia coli, UniProt P0AES4+P0AES6); test: biochemical; conditions: supercoiling assay
# Sequence of E. coli DNA gyrase (P0AES4 whole entry, one chain of several): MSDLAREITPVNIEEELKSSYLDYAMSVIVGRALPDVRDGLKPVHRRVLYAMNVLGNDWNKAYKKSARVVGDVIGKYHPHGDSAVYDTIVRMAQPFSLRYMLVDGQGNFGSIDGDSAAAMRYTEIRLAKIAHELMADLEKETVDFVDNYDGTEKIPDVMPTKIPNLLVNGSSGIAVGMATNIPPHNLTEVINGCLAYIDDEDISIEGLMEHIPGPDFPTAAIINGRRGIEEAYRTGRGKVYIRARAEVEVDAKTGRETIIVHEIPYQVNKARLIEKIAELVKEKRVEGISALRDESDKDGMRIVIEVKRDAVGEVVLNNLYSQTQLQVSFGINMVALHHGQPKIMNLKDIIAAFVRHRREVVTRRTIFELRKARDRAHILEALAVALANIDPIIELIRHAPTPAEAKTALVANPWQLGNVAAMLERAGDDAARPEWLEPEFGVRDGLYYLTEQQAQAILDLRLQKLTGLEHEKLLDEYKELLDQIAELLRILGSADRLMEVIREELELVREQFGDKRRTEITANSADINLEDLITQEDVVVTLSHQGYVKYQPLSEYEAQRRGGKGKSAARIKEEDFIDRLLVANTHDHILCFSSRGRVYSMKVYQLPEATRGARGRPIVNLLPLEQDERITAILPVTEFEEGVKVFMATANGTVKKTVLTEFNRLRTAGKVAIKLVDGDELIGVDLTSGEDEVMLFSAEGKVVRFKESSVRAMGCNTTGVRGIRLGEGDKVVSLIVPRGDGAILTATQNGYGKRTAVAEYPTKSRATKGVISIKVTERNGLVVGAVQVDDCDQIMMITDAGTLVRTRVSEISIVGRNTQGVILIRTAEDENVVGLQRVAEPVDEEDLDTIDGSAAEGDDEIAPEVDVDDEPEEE
# [6] = target: T1, human ether a go-go related gene (hERG) K+ channel (Homo sapiens, UniProt Q12809); test: hERG inhibition assay, QPatch HTX automated electrophysiology; format: cell-based; conditions: CHO cell line stably expressing hERG, whole-cell patch clamp, maximum test concentration 300 μM
# T1 construct: Chinese Hamster Ovary cell line stably expressing the full-length hERG potassium channel; expressed in transfected cells
# T1 sequence (Q12809 whole entry): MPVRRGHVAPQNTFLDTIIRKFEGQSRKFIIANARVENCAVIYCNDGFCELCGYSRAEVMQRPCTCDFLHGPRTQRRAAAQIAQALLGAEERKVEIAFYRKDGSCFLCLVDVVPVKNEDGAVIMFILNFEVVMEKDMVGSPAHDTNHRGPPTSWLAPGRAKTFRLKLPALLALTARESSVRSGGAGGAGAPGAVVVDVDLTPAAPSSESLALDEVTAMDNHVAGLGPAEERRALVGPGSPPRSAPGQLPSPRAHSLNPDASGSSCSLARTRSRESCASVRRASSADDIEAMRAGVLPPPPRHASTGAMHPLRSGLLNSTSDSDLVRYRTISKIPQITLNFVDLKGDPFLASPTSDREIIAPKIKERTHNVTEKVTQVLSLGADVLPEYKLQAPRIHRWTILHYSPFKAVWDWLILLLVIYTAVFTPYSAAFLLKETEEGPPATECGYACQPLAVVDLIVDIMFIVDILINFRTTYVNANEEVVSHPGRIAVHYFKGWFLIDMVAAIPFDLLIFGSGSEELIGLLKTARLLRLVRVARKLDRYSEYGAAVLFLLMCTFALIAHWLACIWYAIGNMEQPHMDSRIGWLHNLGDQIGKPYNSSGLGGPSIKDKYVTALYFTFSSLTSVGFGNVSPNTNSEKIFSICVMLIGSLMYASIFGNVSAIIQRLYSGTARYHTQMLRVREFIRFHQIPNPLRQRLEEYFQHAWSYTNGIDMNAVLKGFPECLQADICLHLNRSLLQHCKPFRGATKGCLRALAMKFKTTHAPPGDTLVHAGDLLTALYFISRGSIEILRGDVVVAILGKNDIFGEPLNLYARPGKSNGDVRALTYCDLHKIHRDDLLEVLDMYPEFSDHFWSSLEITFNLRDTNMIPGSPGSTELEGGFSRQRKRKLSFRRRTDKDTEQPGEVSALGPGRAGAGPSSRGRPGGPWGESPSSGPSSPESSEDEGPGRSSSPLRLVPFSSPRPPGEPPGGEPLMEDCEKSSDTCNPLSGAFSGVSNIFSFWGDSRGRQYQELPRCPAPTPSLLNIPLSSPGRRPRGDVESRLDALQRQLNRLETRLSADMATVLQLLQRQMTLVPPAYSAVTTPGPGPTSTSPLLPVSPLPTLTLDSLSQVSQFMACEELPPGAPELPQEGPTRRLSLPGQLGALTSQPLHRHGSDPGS
# Procedure: The compounds were tested for inhibition of the human ether a go-go related gene (hERG) K+ channel using QPatch HTX automated electrophysiology.
# Compounds were solubilised to 100 mM in DMSO before dilution in HBPS to 300 μM.
# Electrophysiological recordings were made from a Chinese Hamster Ovary cell line stably expressing the full-length hERG potassium channel. Single cell ionic currents were measured in whole-cell patch clamp configuration at room temperature (21-23° C.) using the QPatch HTX platform (Sophion). Intracellular solution contained (mM): 120 KF, 20 KCl, 10 EGTA, 10 HEPES and was buffered to pH 7.3. […] Cells were clamped at a holding potential of −80 mV. […] This sweep was repeated 10 times at 10 s intervals. hERG currents were measured from the tail step and referenced to the holding current. Compounds were then incubated for 2 minutes prior to a second measurement of ion channel current using an identical pulse train.
# [7] = test system: Acinetobacter baumannii ATCC 19606; test: Minimum Inhibitory Concentration (MIC) in LB media; format: cell-based; conditions: Acinetobacter baumannii, ATCC19606;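 further: twofold compound dilutions from DMSO stocks in LB broth microplates, overnight incubation at 37 °C, growth read by absorbance at 600 nm, with DMSO and sterility controls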
# Procedure: Bacterial cultures that are stored as glycerol stocks at −80° C. are sub cultured on LB agar plates to obtain isolated colonies. A single colony of each strain is cultured in LB broth. […] Test compounds are dissolved in dimethyl sulfoxide (DMSO) to a stock concentration of 4 mg/ml. A twofold dilution series of this DMSO stock is prepared in a 96 well V bottom microtitre plate from rows A to H. A 3 μL volume of these dilutions are transferred to a 96-well flat bottom microtitre assay plate. Controls to monitor the effects of DMSO and media sterility are included. Each well is inoculated with 150 μL of the above diluted culture. The plates are incubated at 37° C. overnight in a humidified incubator. The following morning, the plates are read using a Spectrophotometer at 600 nm wavelength.
# Sequence of E. coli topoisomerase IV (P20083 whole entry): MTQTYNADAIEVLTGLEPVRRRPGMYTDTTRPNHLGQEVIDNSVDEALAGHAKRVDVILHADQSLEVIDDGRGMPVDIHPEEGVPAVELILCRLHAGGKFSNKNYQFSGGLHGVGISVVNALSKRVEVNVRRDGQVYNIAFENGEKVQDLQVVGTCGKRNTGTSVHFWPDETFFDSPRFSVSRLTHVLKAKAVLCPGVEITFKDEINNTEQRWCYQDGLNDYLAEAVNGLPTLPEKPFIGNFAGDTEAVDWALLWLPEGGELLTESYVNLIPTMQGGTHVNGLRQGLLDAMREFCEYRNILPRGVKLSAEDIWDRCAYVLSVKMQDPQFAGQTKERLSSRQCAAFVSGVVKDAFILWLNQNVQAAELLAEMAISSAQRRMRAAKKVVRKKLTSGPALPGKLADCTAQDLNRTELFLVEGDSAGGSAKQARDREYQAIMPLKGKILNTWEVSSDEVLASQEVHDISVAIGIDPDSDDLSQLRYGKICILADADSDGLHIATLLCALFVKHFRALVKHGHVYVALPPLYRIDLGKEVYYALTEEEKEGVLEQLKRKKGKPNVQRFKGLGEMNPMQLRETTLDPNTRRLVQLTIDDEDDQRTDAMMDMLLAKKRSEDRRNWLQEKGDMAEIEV
# Sequence of E. coli topoisomerase IV (P0AFI2 whole entry): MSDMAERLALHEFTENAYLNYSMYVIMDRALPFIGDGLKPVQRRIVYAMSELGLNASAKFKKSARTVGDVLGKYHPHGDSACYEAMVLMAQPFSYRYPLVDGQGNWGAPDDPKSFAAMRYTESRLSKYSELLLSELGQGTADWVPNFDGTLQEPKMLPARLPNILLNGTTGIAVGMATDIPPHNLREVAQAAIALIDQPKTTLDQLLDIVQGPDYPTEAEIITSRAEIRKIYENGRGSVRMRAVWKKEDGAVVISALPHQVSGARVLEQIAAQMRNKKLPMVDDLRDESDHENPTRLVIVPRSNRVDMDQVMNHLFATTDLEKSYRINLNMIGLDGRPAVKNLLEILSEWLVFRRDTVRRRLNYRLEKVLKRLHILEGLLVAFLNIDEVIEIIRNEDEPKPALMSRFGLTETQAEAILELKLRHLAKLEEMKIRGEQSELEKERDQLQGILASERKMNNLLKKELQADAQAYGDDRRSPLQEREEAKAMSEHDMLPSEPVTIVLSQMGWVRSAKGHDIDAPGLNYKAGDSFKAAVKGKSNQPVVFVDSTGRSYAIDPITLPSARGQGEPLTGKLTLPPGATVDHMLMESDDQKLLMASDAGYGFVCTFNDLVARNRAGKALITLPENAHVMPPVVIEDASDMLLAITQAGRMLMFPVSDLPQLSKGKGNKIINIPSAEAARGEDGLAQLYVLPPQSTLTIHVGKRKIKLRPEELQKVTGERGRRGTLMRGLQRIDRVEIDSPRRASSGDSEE
SMILES,IC50 (E. coli topoisomerase IV) [nM],MIC [1] [µg/mL],MIC [2] [µg/mL],MIC [3] [µg/mL],MIC [4] [µg/mL],MIC [5] [µg/mL],IC50 (E. coli DNA gyrase) [nM],IC50 [6] [nM],MIC [7] [µg/mL]
"O=C1COc2ccc(N3C[C@H](CNCCc4c(F)ccc5ccc(=O)n(CCO)c45)OC3=O)nc2N1 [Example 10, (S)-6-(5-(((2-(7-fluoro-1-(2-hydroxyethyl)-2-oxo-1,2-dihydroquinolin-8-yl)ethyl)amino)methyl)-2-oxooxazolidin-3-yl)-2H-pyrido[3,2-b][1,4]oxazin-3(4H)-one]",30,0.03,0.015,0.5,0.06,0.06,5.9,71000,0.125
"Cn1c(=O)ccc2ccc(F)c(CCNC[C@H]3CN(c4ccc5c(n4)NC(=O)CO5)C(=O)O3)c21 [Example 8, (S)-6-(5-(((2-(7-fluoro-1-methyl-2-oxo-1,2-dihydroquinolin-8-yl)ethyl)amino)methyl)-2-oxooxazolidin-3-yl)-2H-pyrido[3,2-b][1,4]oxazin-3(4H)-one]",–,0.03,≤ 0.015,0.25,0.03,0.06,–,17000,≤ 0.015
"Cn1c(=O)cc(CN)c2ccc(F)c(CCNC[C@H]3CN(c4ccc5c(n4)NC(=O)CO5)C(=O)O3)c21 [Example 13, (S)-6-(5-(((2-(4-(aminomethyl)-7-fluoro-1-methyl-2-oxo-1,2-dihydroquinolin-8-yl)ethyl)amino)methyl)-2-oxooxazolidin-3-yl)-2H-pyrido[3,2-b][1,4]oxazin-3(4H)-one]",32,0.125,0.25,0.5,0.25,0.5,20,> 300000,1
"O=C1COc2ccc(N3C[C@H](CNCCc4c(F)ccc5ncc(=O)n(CCO)c45)OC3=O)nc2N1 [Example 9, (S)-6-(5-(((2-(6-fluoro-4-(2-hydroxyethyl)-3-oxo-3,4-dihydroquinoxalin-5-yl)ethyl)amino)methyl)-2-oxooxazolidin-3-yl)-2H-pyrido[3,2-b][1,4]oxazin-3(4H)-one]",175,0.06,0.03,1,0.13,0.125,3.2,68700,0.06
"Cn1c(=O)ccc2ccc(F)c(CCNCC[C@@H]3CN(c4cnc5c(n4)NC(=O)CO5)C(=O)O3)c21 (single isomer, unassigned) [Example 25]",21,0.06,0.06,0.25,0.25,0.5,17,101000,0.5
"CN1C(=O)CCc2ccc(F)c(CCNC[C@@H]3CN(c4ccc5c(n4)NC(=O)CO5)C(=O)O3)c21 [Example 3, (R)-6-(5-(((2-(7-fluoro-1-methyl-2-oxo-1,2,3,4-tetrahydroquinolin-8-yl)ethyl)amino)methyl)-2-oxooxazolidin-3-yl)-2H-pyrido[3,2-b][1,4]oxazin-3(4H)-one]",–,0.5,0.5,16,2,0.25,–,12000,1
"Cn1c(=O)ccc2ccc(F)c(CCNCC[C@H]3CN(c4cnc5c(n4)NC(=O)CO5)C(=O)O3)c21 (single isomer, unassigned) [Example 24]",123,0.06,0.125,0.25,0.125,0.125,25,> 300000,0.5
